Our source for the melting point values is patent publication US6933322B2, “Substituted naphthylenes for the treatment of non-insulin dependent diabetes mellitus” (Wyeth, priority 2002, dated 2005).

Each structure is given as a SMILES string.

As to `CC(C)(C)c1ccc(-c2ccc(COc3cccc4cc(NS(=O)(=O)C(F)(F)F)ccc34)c(F)c2)cc1` [Example 6, N-[5-(4′-tert-Butyl-3-fluoro-biphenyl-4-ylmethoxy)-naphthalen-2-yl]-C,C,C-trifluoro-methanesulfonamide], the melting point lay in the range of 162 to 164 °C. In turn, `O=S(=O)(Nc1ccc2c(OCc3ccc(-c4ccc(F)cc4)cc3F)cccc2c1)C(F)(F)F` [Example 7, N-[5-(3,4′-Difluoro-biphenyl-4-ylmethoxy)-naphthalen-2-yl]-C,C,C-trifluoro-methanesulfonamide] yielded a melting point of 134 to 136 °C. For `O=S(=O)(Nc1ccc2c(OCc3ccc(-c4ccc(Cl)cc4)cc3F)cccc2c1)C(F)(F)F` [Example 8, N-[5-(4′-Chloro-3-fluoro-biphenyl-4-ylmethoxy)-naphthalen-2-yl]-C,C,C-trifluoro-methanesulfonamide] the value was 151 to 153 °C; for `COC1(F)C=CC(c2cccc(COc3cccc4cc(NS(=O)(=O)C(F)(F)F)ccc34)c2)=CC1` (centres unmarked) [Example 12, N-[5-(4′-Fluoro-4′-methoxy-biphenyl-3-ylmethoxy)-naphthalen-2-yl]-C,C,C-trifluoro-methanesulfonamide], 125 to 127 °C; for `O=S(=O)(Nc1ccc2c(OCc3ccccc3-c3ccccc3)cccc2c1)C(F)(F)F` [Example 19, N-[5-(Biphenyl-2-ylmethoxy)-naphthalen-2-yl]-C,C,C-trifluoromethanesulfonamide], 119 to 121 °C. Consider `COc1ccc(-c2cccc(COc3cccc4cc(NS(=O)(=O)C(F)(F)F)ccc34)c2)cc1` [Example 20, C,C,C-Trifluoro-N-[5-(4′-methoxy-biphenyl-3-ylmethoxy)-naphthalen-2-yl]-methanesulfonamide], for which the melting point fell in the range of 123 to 125 °C. For `COc1ccc(-c2ccc(Cl)cc2)cc1COc1cccc2cc(NS(=O)(=O)C(F)(F)F)ccc12` [Example 21, N-[5-(4′-Chloro-4-methoxy-biphenyl-3-ylmethoxy)-naphthalen-2-yl]-C,C,C-trifluoromethanesulfonamide], the melting point fell in the range of 155 to 157 °C. `O=S(=O)(Nc1ccc2c(OCc3ccc(-c4ccc(Cl)cc4)cc3)cccc2c1)C(F)(F)F` [Example 22, N-[5-(4′-Chloro-biphenyl-4-ylmethoxy)-naphthalen-2-yl]-C,C,C-trifluoromethanesulfonamide]: the melting point fell in the range of 131 to 133 °C. On to `Cc1c(COc2cccc3cc(NS(=O)(=O)C(F)(F)F)ccc23)cccc1-c1ccccc1` [Example 23, C,C,C-Trifluoro-N-[5-(2-methyl-biphenyl-3-ylmethoxy)-naphthalen-2-yl]-methanesulfonamide], for which the melting point lay in the range of 124 to 125 °C.

With `O=S(=O)(Nc1ccc2c(OCc3ccc(-c4ccccn4)cc3)cccc2c1)C(F)(F)F` [Example 24, C,C,C-Trifluoro-N-[5-(4-pyridin-2-yl-benzyloxy)-naphthalen-2-yl]-methanesulfonamide], the melting point lay in the range of 119 to 120 °C. The same measure for `COc1ccc(-c2cc(COc3cccc4cc(NS(=O)(=O)C(F)(F)F)ccc34)ccc2F)cc1` [Example 26, C,C,C-Trifluoro-N-[5-(6-fluoro-4′-methoxy-biphenyl-3-ylmethoxy)-naphthalen-2-yl]-methanesulfonamide]: 132 to 133 °C. `O=S(=O)(Nc1ccc2c(OCc3ccc(-c4ccccc4)cc3Cl)cccc2c1)C(F)(F)F` [Example 29, N-[5-(3-Chloro-biphenyl-4-ylmethoxy)-naphthalen-2-yl]-C,C,C-trifluoro-methanesulfonamide] displayed a melting point of 131 to 134 °C. Compound `O=S(=O)(Nc1ccc2c(OCc3cccc(-c4ccc(F)cc4)n3)cccc2c1)C(F)(F)F` [Example 42, C,C,C-Trifluoro-N-{5-[6-(4-fluoro-phenyl)-pyridin-2-ylmethoxy]-naphthalen-2-yl}-methanesulfonamide] had a melting point of 173 to 174 °C. Compound `O=S(=O)(Nc1ccc2c(OCc3cccc(-c4ccc(C(F)(F)F)cc4)n3)cccc2c1)C(F)(F)F` [Example 43, C,C,C-Trifluoro-N-{5-[6-(4-trifluoromethyl-phenyl)-pyridin-2-ylmethoxy]-naphthalen-2-yl}-methanesulfonamide] yielded a melting point of 180 to 182 °C. The same measure for `O=S(=O)(Nc1ccc2c(OCc3csc(-c4ccc(Cl)cc4)n3)cccc2c1)C(F)(F)F` [Example 44, N-{5-[2-(4-Chloro-phenyl)-thiazol-4-ylmethoxy]-naphthalen-2-yl}-C,C,C-trifluoro-methanesulfonamide]: 151 to 153 °C; for `O=S(=O)(Nc1ccc2c(OCc3csc(-c4ccc(F)cc4)n3)cccc2c1)C(F)(F)F` [Example 45, C,C,C-Trifluoro-N-{5-[2-(4-fluoro-phenyl)-thiazol-4-ylmethoxy]-naphthalen-2-yl}-methanesulfonamide]: 170 to 173 °C; for `CC(C)(C)c1ccc(-c2nc(COc3cccc4cc(NS(=O)(=O)C(F)(F)F)ccc34)cs2)cc1` [Example 47, N-{5-[2-(4-tert-Butyl-phenyl)-thiazol-4-ylmethoxy]-naphthalen-2-yl}-C,C,C-trifluoro-methanesulfonamide]: 174 to 175 °C. For `O=S(=O)(Nc1ccc2c(OCc3csc(C4COc5ccccc5O4)n3)cccc2c1)C(F)(F)F` (centres unmarked) [Example 50, N-{5-[2-(2,3-Dihydro-benzo[1,4]dioxin-2-yl)-thiazol-4-ylmethoxy]-naphthalen-2-yl}-C,C,C-trifluoro-methanesulfonamide] the value was 183 to 185 °C; for `O=S(=O)(Nc1ccc2c(OCc3csc(-c4ccccc4)n3)cccc2c1)C(F)(F)F` [Example 51, C,C,C-Trifluoro-N-[5-(2-phenyl-thiazol-4-ylmethoxy)-naphthalen-2-yl]-methanesulfonamide], 89 to 99 °C. As for `O=S(=O)(Nc1ccc2c(OCc3csc(-c4ccccc4Cl)n3)cccc2c1)C(F)(F)F` [Example 54, N-{5-[2-(2-Chloro-phenyl)-thiazol-4-ylmethoxy]-naphthalen-2-yl}-C,C,C-trifluoromethanesulfonamide], the melting point was 128 to 129 °C. For the compound `O=S(=O)(Nc1ccc2c(OCc3csc(-c4ccc(OC(F)(F)F)cc4)n3)cccc2c1)C(F)(F)F` [Example 55, C,C,C-Trifluoro-N-{5-[2-(4-trifluoromethoxy-phenyl)-thiazol-4-yl-methoxy]-naphthalen-2-yl}-methanesulfonamide], the melting point is 131 to 132 °C.

For the compound `O=S(=O)(Nc1ccc2c(OCc3nc(-c4ccc(F)cc4)sc3Br)cccc2c1)C(F)(F)F` [Example 56, N-{5-[5-Bromo-2-(4-fluoro-phenyl)-thiazol-4-ylmethoxy]-naphthalen-2-yl}-C,C,C-trifluoromethanesulfonamide], the melting point was in the range of 139 to 140 °C. The same measure for `CC(C)(C)c1ccc(C2(COc3cccc4cc(NS(=O)(=O)C(F)(F)F)ccc34)N=CNO2)cc1` (centres unmarked) [Example 59, N-{5-[5-(4-tert-Butyl-phenyl)-[1,2,4]-oxadiazol-5-ylmethoxy)-naphthalen-2-yl}-C,C,C-trifluoro-methanesulfonamide]: 154 to 155 °C.
